Laboratory results from patent US12281304B2, “Compositions and methods for treating and preventing muscular disorders and dystrophies, steroid side effects, and inflammation” (Children's National Medical Center, priority 2018, dated 2025).

Tested on: miRNAs in diaphragm muscle of mdx mice
Assay: TaqMan low-density array (TLDA) miRNA profiling of diaphragm, discovery set (prophylactic mdx trial)
Format: in vivo, mouse
Description: Archival muscle samples (diaphragm) from two separate preclinical studies were obtained, with each trial showing a significant benefit from both prednisolone and vamorolone drug treatments (23). Prednisolone was used because it is the active form of prednisone, the current DMD standard of care. The first, “discovery set” of diaphragm muscles was from a prophylactic trial design where 2-week old (postnatal day 15) mdx or wild type control mice received oral dosing for 6 weeks with vehicle (cherry syrup), prednisolone (5 mg/kg), or vamorolone (15 mg/kg) as previously reported (23). The second, “validation set” of diaphragm muscles was from an extended trial in older mice where mdx or wild type mice were subjected to treadmill running to unmask mild phenotypes. Mice in this validation set were treated with either vehicle, prednisolone (5 mg/kg) or vamorolone (45 mg/kg) for four months beginning at two months of age (23). At the endpoint of each trial, diaphragm muscles were harvested and frozen in liquid nitrogen-cooled isopentane.
We extracted total RNA from 5 diaphragm muscles per treatment group in the discovery set of samples from 8-week old mice. RNA was extracted using a modified TRIzol protocol with isopropanol precipitation at −20° C. overnight. This RNA was reverse transcribed to cDNA using a High Capacity cDNA Reverse Transcription Kit with RNase Inhibitor (ThermoFisher; Carlsbad, Calif.), with miRNA-specific Megaplex RT Primers, Rodent Pools Set version 3.0 (ThermoFisher; Carlsbad, Calif.). Levels of each of the miRNAs were profiled in the discovery set using TAQMAN Array Rodent MiRNA A+B Cards Set v3.0 (ThermoFisher; Carlsbad, Calif.).
In the discovery set experiments, levels of each miRNA were quantified in TaqMan low-density arrays using ThermoFisher Cloud software with the Relative Quantification Application (ThermoFisher; Carlsbad, Calif.) tool. Data was analyzed by ANOVA with post-hoc comparison of each group to the mdx vehicle-treated group. […] A P-value of P≤0.05 was set as the significance threshold, without adjustment for multiple comparisons. To reduce false-positive discovery in this setting, an evidence-based approach was used to identify efficacy associated miRNAs where 1) results from the multiple groups were cross-referenced, and 2) all candidate miRNAs identified in this discovery set were then assayed in a separate validation set of mice. For the validation set experiments, levels of each individual miRNA were assayed in samples from a second, independent preclinical trial in adult mdx mice. Data from individual TaqMan Assays was quantified using QuantStudio Real-Time PCR version 1.3 software (Applied Biosystems; Foster City, Calif.). The levels of all miRNAs were normalized to the geometric mean of multiple control genes (60, 70). Comparison of groups was made by ANOVA with Holm-Sidak post-hoc test comparing each group to mdx vehicle.
To visualize behavior of miRNAs within individual mice for each group, heat map images were generated. Heat maps were generated using Rq values of TLDA array data exported from the Relative Quantification Application of the ThermoFisher Cloud software (ThermoFisher; Carlsbad, Calif.) tool. Heat maps of miRNA expression were produced using Hierarchical Clustering Explorer Version 3.5 (at www.cs.umd.edu/hcil/multi-cluster/) produced by the Human Computer Interaction Laboratory (University of Maryland; College Park, Md.).
To examine miRNA expression TaqMan low density qPCR array cards were used to profile approximately 750 miRNAs within diaphragm muscle from a discovery set of mice. Samples for this experiment came from a trial that utilized a prophylactic approach (23). Briefly, mdx mice undergo a stage of peak severity characterized by widespread inflammation and necrosis from approximately 3-8 weeks of age, followed by a recovery stage where mice show milder phenotypes (25). […]

[1] = discovery set diaphragm muscle, mdx mice, Pred 5 mg/kg, Vam 15 mg/kg
[2] = mdx diaphragm, vs untreated mdx, Pred 5 mg/kg, Vam 15 mg/kg

C[C@@H]1C[C@H]2[C@@H]3CCC4=CC(=O)C=C[C@]4(C)C3=CC[C@]2(C)[C@@]1(O)C(=O)CO [vamorolone]
miRNA 142-3p % expression in comparison to mdx vehicle [1]: 65 ± 20 % | miRNA 142-5p % expression in comparison to mdx vehicle [1]: 61 ± 23 % | miRNA 146a % expression in comparison to mdx vehicle [1]: 52 ± 12 % | miRNA 301a % expression in comparison to mdx vehicle [1]: 77 ± 12 % | miRNA 324-3p % expression in comparison to mdx vehicle [1]: 75 ± 13 % | miRNA 455-3p % expression in comparison to mdx vehicle [1]: 61 ± 14 % | miRNA 455-5p % expression in comparison to mdx vehicle [1]: 64 ± 15 % | miRNA 497 % expression in comparison to mdx vehicle [1]: 65 ± 11 % | miRNA 652 % expression in comparison to mdx vehicle [1]: 64 ± 18 % | number of miRNAs significantly changed in dystrophic muscle (mdx diaphragm, 8-week-old mice, oral dosing 6 weeks, prednisolone 5 mg/kg, vamorolone 15 mg/kg, versus untreated mdx, P≤0.05): 41 | number of miRNAs significantly increased by treatment (mdx diaphragm, discovery set, prednisolone 5 mg/kg, vamorolone 15 mg/kg, P≤0.05): none of the miRNAs queried in the TLDA cards were significantly increased | expression of the nine efficacy-associated miRNAs elevated in dystrophy (mdx diaphragm, discovery set, versus mdx vehicle): returned towards healthy wild type levels | Rq hsa-let-7i#-002172 [2]: 0.939 | Rq hsa-miR-30e-3p-000422 [2]: 0.849 | Rq hsa-miR-22#-002301 [2]: 0.78 | Rq hsa-miR-140-3p-002234 [2]: 0.903 | Rq hsa-miR-143-000466 [2]: 1.29 | Rq hsa-miR-154#-000478 [2]: 0.689 | Rq hsa-miR-190b-002263 [2]: 0.822 | Rq hsa-miR-200c-000505 [2]: 0.453 | Rq hsa-miR-206-000510 [2]: 0.983 | Rq hsa-miR-213-000516 [2]: 0.839 | Rq hsa-miR-214#-002293 [2]: 0.889 | Rq hsa-miR-214-000517 [2]: 0.994 | Rq hsa-miR-376a#-001287 [2]: 0.845 | Rq hsa-miR-455-001280 [2]: 0.637 | Rq hsa-miR-744#-002325 [2]: 0.816 | Rq mmu-let-7e-002406 [2]: 0.665 | Rq mmu-let-7a-000377 [2]: 0.667 | Rq mmu-let-7b-000378 [2]: 0.754 | Rq mmu-let-7c-1#-002479 [2]: 1.038 | Rq mmu-let-7c-000379 [2]: 0.691 | Rq mmu-let-7i-002221 [2]: 0.777 | Rq mmu-let-7d#-001178 [2]: 0.61 | Rq mmu-let-7d-002283 [2]: 0.789 | Rq mmu-miR-1-002222 [2]: 0.897 | Rq mmu-miR-15a-000389 [2]: 0.719 | Rq mmu-miR-16-000391 [2]: 0.781 | Rq mmu-miR-18a-002422 [2]: 1.288 | Rq mmu-miR-19a-000395 [2]: 0.886 | Rq mmu-miR-20a#-002491 [2]: 0.825 | Rq mmu-miR-21#-002493 [2]: 0.647 | Rq mmu-miR-21-000397 [2]: 0.677 | Rq mmu-miR-23b-000400 [2]: 0.675 | Rq mmu-miR-25-000403 [2]: 0.867 | Rq mmu-miR-26a-000405 [2]: 0.766 | Rq mmu-miR-27b-000409 [2]: 0.82 | Rq mmu-miR-28-000411 [2]: 0.842 | Rq mmu-miR-30e-002223 [2]: 0.847 | Rq mmu-miR-30a-000417 [2]: 0.834 | Rq mmu-miR-30b-000602 [2]: 0.855 | Rq mmu-miR-30c-000419 [2]: 0.818 | Rq mmu-miR-31#-002495 [2]: 0.821 | Rq mmu-miR-31-000185 [2]: 1.032 | Rq mmu-miR-34a-000426 [2]: 0.789 | Rq mmu-miR-34b-3p-002618 [2]: 0.798 | Rq mmu-miR-34c#-002584 [2]: 0.748 | Rq mmu-miR-34c-000428 [2]: 0.811 | Rq mmu-miR-99b-000436 [2]: 0.913 | Rq mmu-miR-100-000437 [2]: 0.721 | Rq mmu-miR-103-000439 [2]: 0.628 | Rq mmu-miR-122-002245 [2]: 0.072 | Rq mmu-miR-125a-3p-002199 [2]: 0.828 | Rq mmu-miR-125b#-002508 [2]: 0.803 | Rq mmu-miR-125b-3p-002378 [2]: 0.866 | Rq mmu-miR-125b-5p-000449 [2]: 0.682 | Rq mmu-miR-126-3p-002228 [2]: 0.809 | Rq mmu-miR-126-5p-000451 [2]: 0.812 | Rq mmu-miR-127-000452 [2]: 1.107 | Rq mmu-miR-128a-002216 [2]: 0.847 | Rq mmu-miR-130a-000454 [2]: 0.717 | Rq mmu-miR-130b#-002460 [2]: 1.164 | Rq mmu-miR-130b-000456 [2]: 0.88 | Rq mmu-miR-133a-002246 [2]: 0.996 | Rq mmu-miR-134-001186 [2]: 1.353 | Rq mmu-miR-136-002511 [2]: 0.942 | Rq mmu-miR-138#-002554 [2]: 0.384 | Rq mmu-miR-140-001187 [2]: 0.818 | Rq mmu-miR-142-3p-000464 [2]: 0.626 | Rq mmu-miR-142-5p-002248 [2]: 0.576 | Rq mmu-miR-143-002249 [2]: 0.716 | Rq mmu-miR-145-002278 [2]: 0.722 | Rq mmu-miR-146a-000468 [2]: 0.513 | Rq mmu-miR-146b#-002453 [2]: 0.275 | Rq mmu-miR-146b-001097 [2]: 0.645 | Rq mmu-miR-148a-000470 [2]: 0.496 | Rq mmu-miR-148b-000471 [2]: 0.568 | Rq mmu-miR-150#-002570 [2]: 0.293 | Rq mmu-miR-150-000473 [2]: 0.692 | Rq mmu-miR-151-3p-001190 [2]: 0.971 | Rq mmu-miR-152-000475 [2]: 0.785 | Rq mmu-miR-154-000477 [2]: 0.898 | Rq mmu-miR-155-002571 [2]: 0.876 | Rq mmu-miR-181a-000480 [2]: 0.773 | Rq mmu-miR-181c-000482 [2]: 0.71 | Rq mmu-miR-185-002271 [2]: 0.886 | Rq mmu-miR-186-002285 [2]: 0.994 | Rq mmu-miR-191-002299 [2]: 0.815 | Rq mmu-miR-193#-002577 [2]: 0.682 | Rq mmu-miR-195-000494 [2]: 0.669 | Rq mmu-miR-199a-3p-002304 [2]: 0.722 | Rq mmu-miR-199b-001131 [2]: 0.667 | Rq mmu-miR-200c-002300 [2]: 0.577 | Rq mmu-miR-203-000507 [2]: 0.521 | Rq mmu-miR-204-000508 [2]: 0.627 | Rq mmu-miR-210-000512 [2]: 0.746 | Rq mmu-miR-214-002306 [2]: 0.842
